Data as given in patent US20250154169A1, “COMPOUNDS AND METHODS FOR MODULATING SPLICING” (REMIX THERAPEUTICS INC., priority 2021, published 2025).
Where two headings read alike, the source gives them in different places.

Tests used:
Type in all cases: cell-based, human
HTT mRNA [1] = experiment: Splicing RT-qPCR assay, HTT canonical (CJ) and alternative (AJ) junction mRNA; conditions: A673 or K562 cells, 24 hours compound treatment; for IC50: read-out: HTT CJ (IC50, decrease in canonical junction mRNA); for AC50: read-out: HTT AJ (AC50, increase in alternative junction mRNA)
Procedure, shortened: (§1)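 Canonical (CJ) and alternative-exon (AJ) junction mRNAs quantified by one-step RT-qPCR in cell lysates, normalized to housekeeping PPIA for A673 and GAPDH or GUSB for K562. Cells were exposed 24 h at 37 °C to 11-point 3-fold compound series from 10 uM final, with DMSO at or below 0.25%.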

MYB mRNA = experiment: Splicing RT-qPCR assay, MYB canonical (CJ) and alternative (AJ) junction mRNA; conditions: for AC50: read-out: MYB AJ (AC50, increase in alternative junction mRNA)
Procedure, shortened: as §1

SMN2 mRNA = experiment: Splicing RT-qPCR gene panel, SMN2 canonical junction (CJ) mRNA; conditions: Tables 4A/4B, read-out: SMN2 (IC50, decrease in CJ mRNA, gene panel)
Procedure, shortened: (§2)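 A673 or K562 cells were treated 24 h at 37 °C with an 11-point 3-fold dilution series (top 10 uM, ≤0.25% DMSO). Canonical-junction mRNA was measured in lysates by one-step RT-qPCR, normalized to GAPDH, GUSB or PPIA and DMSO control (2^(−ΔΔCt)), expressed as percentage response.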

Target C mRNA = experiment: Splicing RT-qPCR gene panel, Target C canonical junction (CJ) mRNA; conditions: Tables 4A/4B, read-out: Target C (IC50, decrease in CJ mRNA, gene panel)
Procedure, shortened: as §2

HTT mRNA [2] = experiment: Splicing RT-qPCR gene panel, HTT canonical junction (CJ) mRNA; conditions: Tables 4A/4B, read-out: HTT (IC50, decrease in CJ mRNA, gene panel)
Procedure, shortened: as §2

[3] = Homo sapiens, 24 h, A673 or K562 cells, 24 hours compound treatment, RT-qPCR
[4] = Homo sapiens, 24 h, A673 or K562 cells, 24 hours compound treatment, RT-qPCR, read-out: MYB CJ (IC50, decrease in canonical junction mRNA)
[5] = Homo sapiens, Tables 4A/4B, canonical junction qPCR panel, read-out: MYB (IC50, decrease in CJ mRNA, gene panel)
[6] = A673 or K562 cells, 24 hours compound treatment, RT-qPCR
[7] = A673 or K562 cells, 24 hours compound treatment, RT-qPCR, read-out: MYB CJ (IC50, decrease in canonical junction mRNA)
[8] = Tables 4A/4B, canonical junction qPCR panel, read-out: MYB (IC50, decrease in CJ mRNA, gene panel)

Row | IC50 (HTT mRNA [1]; Homo sapiens, 24 h) | IC50 (MYB mRNA; [4]) | IC50 (MYB mRNA; [5]) | IC50 (SMN2 mRNA; Homo sapiens) | IC50 (Target C mRNA; Homo sapiens) | IC50 (HTT mRNA [2]; Homo sapiens) | IC50 (HTT mRNA [1]) | IC50 (MYB mRNA; [7]) | IC50 (MYB mRNA; [8]) | IC50 (Target C mRNA) | IC50 (HTT mRNA [2]) | IC50 (SMN2 mRNA) | SMILES | AC50 (HTT mRNA [1]; Homo sapiens) | AC50 (MYB mRNA; [3]) | AC50 (MYB mRNA; [6]) | AC50 (HTT mRNA [1])
1 | > 10000 nM | 100 to 1000 nM | < 100 nM | < 100 nM | 1000 to 10000 nM | 1000 to 10000 nM |  |  |  |  |  |  | CN[C@@H]1CCN(c2ccc(C(=O)Nc3cn4cc(C)nc4c(OC)n3)c3nn(CCOC)cc23)C1 [Compound 431, (R)—N-(8-methoxy-2-methylimidazo[1,2-a]pyrazin-6-yl)-2-(2-methoxyethyl)-4-(3-(methylamino)pyrrolidin-1-yl)-2H-indazole-7-carboxamide] | > 10000 nM | 100 to 1000 nM |  | 
2 | 1000 to 10000 nM | 100 to 1000 nM | < 100 nM | < 100 nM | > 10000 nM | > 10000 nM |  |  |  |  |  |  | CCOc1nc(NC(=O)c2ccc(N3CC[C@H](NC)C3)c3cn(C)nc23)cn2cc(C)nc12 [Compound 434] | 1000 to 10000 nM | 1000 to 10000 nM |  | 
3 | > 10000 nM | > 10000 nM | 100 to 1000 nM | < 100 nM | 1000 to 10000 nM | 1000 to 10000 nM |  |  |  |  |  |  | Cc1cn2cc(NC(=O)c3ccc(N4CCNCC4)c4nnn(C)c34)cc(F)c2n1 [Compound 435, N-{8-fluoro-2-methylimidazo[1,2-a]pyridin-6-yl}-3-methyl-7-(piperazin-1-yl)-1,2,3-benzotriazole-4-carboxamide] | > 10000 nM | > 10000 nM |  | 
4 | > 10000 nM | 100 to 1000 nM | > 10000 nM | > 10000 nM | > 10000 nM | > 10000 nM |  |  |  |  |  |  | Cc1cn2cc(NC(=O)c3ccc(N4CCNCC4)c4c3nnn4C)cc(F)c2n1 [Compound 436, N-{8-fluoro-2-methylimidazo[1,2-a]pyridin-6-yl}-1-methyl-7-(piperazin-1-yl)-1,2,3-benzotriazole-4-carboxamide] | > 10000 nM | 100 to 1000 nM |  | 
5 | 1000 to 10000 nM | < 100 nM | 100 to 1000 nM | < 100 nM | > 10000 nM | 1000 to 10000 nM |  |  |  |  |  |  | CCNC1CCN(c2ccc(C(=O)Nc3cc(F)c4nc(C)sc4c3)c3nn(C)cc23)CC1 [Compound 443, 4-[4-(ethylamino)piperidin-1-yl]-N-(4-fluoro-2-methyl-1,3-benzothiazol-6-yl)-2-methylindazole-7-carboxamide] | 1000 to 10000 nM | < 100 nM |  | 
6 |  |  |  | < 100 nM |  |  | 1000 to 10000 nM | 100 to 1000 nM | < 100 nM | 1000 to 10000 nM | 1000 to 10000 nM |  | Cc1cn2cc(NC(=O)c3ccc(N4CCNCC4)c4cn(C)nc34)c(C#N)cc2n1 [Compound 444, N-{7-cyano-2-methylimidazo[1,2-a]pyridin-6-yl}-2-methyl-4-(piperazin-1-yl) indazole-7-carboxamide] | > 10000 nM |  | 100 to 1000 nM | 
7 | 1000 to 10000 nM | 100 to 1000 nM | 1000 to 10000 nM | < 100 nM | > 10000 nM | > 10000 nM |  |  |  |  |  |  | CCn1cc2c(C3OCC(C)(N)CO3)ccc(C(=O)Nc3cc(F)c4nc(C)cn4c3)c2n1 (stereo not drawn) [Compound 454, 4-(5-amino-5-methyl-1,3-dioxan-2-yl)-2-ethyl-N-{8-fluoro-2-methylimidazo[1,2-a]pyridin-6-yl}indazole-7-carboxamide] | 1000 to 10000 nM | 1000 to 10000 nM |  | 

The next lines start with the compound.

Row | SMILES | IC50 (HTT mRNA [1]; Homo sapiens, 24 h) | IC50 (MYB mRNA; [4]) | IC50 (MYB mRNA; [5]) | IC50 (SMN2 mRNA; Homo sapiens) | IC50 (Target C mRNA; Homo sapiens) | IC50 (HTT mRNA [2]; Homo sapiens) | IC50 (HTT mRNA [1]) | IC50 (MYB mRNA; [7]) | IC50 (MYB mRNA; [8]) | IC50 (Target C mRNA) | IC50 (HTT mRNA [2]) | IC50 (SMN2 mRNA) | AC50 (HTT mRNA [1]; Homo sapiens) | AC50 (MYB mRNA; [3]) | AC50 (MYB mRNA; [6]) | AC50 (HTT mRNA [1])
8 | CN[C@H]1CCN(c2ccc(C(=O)Nc3cn4cc(C)nc4c(OC)n3)c3nn(CCOC)cc23)C1 [Compound 432, (S)—N-(8-methoxy-2-methylimidazo[1,2-a]pyrazin-6-yl)-2-(2-methoxyethyl)-4-(3-(methylamino)pyrrolidin-1-yl)-2H-indazole-7-carboxamide] | > 10000 nM | < 100 nM | 100 to 1000 nM | < 100 nM | > 10000 nM | > 10000 nM |  |  |  |  |  |  | > 10000 nM | < 100 nM |  | 
9 | CCn1cc2c(N3CC[C@H](NC)C3)ccc(C(=O)Nc3cc(F)c4nc(C)cn4c3)c2n1 [Compound 437, (S)-2-ethyl-N-(8-fluoro-2-methylimidazo[1,2-a]pyridin-6-yl)-4-(3-(methylamino)pyrrolidin-1-yl)-2H-indazole-7-carboxamide] | 1000 to 10000 nM | < 100 nM | 100 to 1000 nM | < 100 nM | > 10000 nM | > 10000 nM |  |  |  |  |  |  | 1000 to 10000 nM | < 100 nM |  | 
10 | CN[C@@H]1CCN(c2ccc(C(=O)Nc3cn4cc(C)nc4c(OC)n3)c3nn(C)cc23)C1 [Compound 441] | 1000 to 10000 nM | < 100 nM | < 100 nM | < 100 nM | > 10000 nM | 1000 to 10000 nM |  |  |  |  |  |  | 1000 to 10000 nM | < 100 nM |  | 
11 | CN[C@H]1CCN(c2ccc(C(=O)Nc3cn4cc(C)nc4c(OC)n3)c3nn(C)cc23)C1 [Compound 442] | 1000 to 10000 nM | 100 to 1000 nM | < 100 nM | < 100 nM | > 10000 nM | 1000 to 10000 nM |  |  |  |  |  |  | > 10000 nM | 100 to 1000 nM |  | 
12 | Cc1cn2cc(NC(=O)c3ccc(N4CCNC[C@@H]4C)c4cn(C)nc34)cc(F)c2n1 [Compound 446, N-{8-fluoro-2-methylimidazo[1,2-a]pyridin-6-yl}-2-methyl-4-[(2S)-2-methylpiperazin-1-yl]indazole-7-carboxamide] | 1000 to 10000 nM | 100 to 1000 nM | 100 to 1000 nM | < 100 nM | 1000 to 10000 nM | 1000 to 10000 nM |  |  |  |  |  |  | 1000 to 10000 nM | 100 to 1000 nM |  | 
13 | Cc1cn2cc(NC(=O)c3ccc(N4CCNC[C@H]4C)c4cn(C)nc34)cc(F)c2n1 [Compound 447, N-{8-fluoro-2-methylimidazo[1,2-a]pyridin-6-yl}-2-methyl-4-[(2R)-2-methylpiperazin-1-yl]indazole-7-carboxamide] | 100 to 1000 nM | < 100 nM | 100 to 1000 nM | < 100 nM | 1000 to 10000 nM | 1000 to 10000 nM |  |  |  |  |  |  | 100 to 1000 nM | < 100 nM |  | 
14 | CNC1CCN(c2ccc(C(=O)Nc3cc(F)c4nc(C)cn4c3)c3nn(C)cc23)CC1 [Compound 448, N-{8-fluoro-2-methylimidazo[1,2-a]pyridin-6-yl}-2-methyl-4-[4-(methylamino)piperidin-1-yl]indazole-7-carboxamide] | 100 to 1000 nM | < 100 nM | < 100 nM | < 100 nM | 1000 to 10000 nM | 100 to 1000 nM |  |  |  |  |  |  | 1000 to 10000 nM | < 100 nM |  | 
15 | CCn1cc2c(N3CCN(C)CC3)ccc(C(=O)Nc3cc(F)c4nc(CO)oc4c3)c2n1 [Compound 450, 2-ethyl-N-[4-fluoro-2-(hydroxymethyl)-1,3-benzoxazol-6-yl]-4-(4-methylpiperazin-1-yl) indazole-7-carboxamide] | > 10000 nM | > 10000 nM | < 100 nM | < 100 nM | 1000 to 10000 nM | 100 to 1000 nM |  |  |  |  |  |  | > 10000 nM | > 10000 nM |  | 
16 | Cc1cn2cc(NC(=O)c3ccc(N4CCNCC4)c4cn(C)nc34)c(=O)n(C)c2n1 [Compound 451, N-{2,8-dimethyl-7-oxoimidazo[1,2-a]pyrimidin-6-yl}-2-methyl-4-(piperazin-1-yl) indazole-7-carboxamide] | > 10000 nM | 1000 to 10000 nM | > 10000 nM | > 10000 nM | > 10000 nM | > 10000 nM |  |  |  |  |  |  | > 10000 nM | 1000 to 10000 nM |  | 
17 | Cc1cn2cc(NC(=O)c3ccc(N4CCNCC4)c4cn(C)nc34)c(C#N)cc2n1 [Compound 452, N-{7-cyano-2-methylimidazo[1,2-a]pyridin-6-yl}-2-methyl-4-(piperazin-1-yl) indazole-7-carboxamide] |  |  |  |  |  |  | > 10000 nM | 1000 to 10000 nM | 1000 to 10000 nM | > 10000 nM | > 10000 nM | 100 to 1000 nM |  |  | 1000 to 10000 nM | > 10000 nM
18 | CCn1cc2c(N3CCNC(CF)C3)ccc(C(=O)Nc3cc(F)c4nc(C)cn4c3)c2n1 (stereo not drawn) [Compound 453, 2-ethyl-N-{8-fluoro-2-methylimidazo[1,2-a]pyridin-6-yl}-4-[3-(fluoromethyl)piperazin-1-yl]indazole-7-carboxamide] | > 10000 nM | 1000 to 10000 nM | 1000 to 10000 nM | 100 to 1000 nM | > 10000 nM | > 10000 nM |  |  |  |  |  |  | > 10000 nM | 1000 to 10000 nM |  | 
